Test results from the supplement of paper PMC10307832.

Legend:
Test in all cases: relative viability (nuclei count vs DMSO), 5 days (fraction); higher = more cells survive
VX-11e + Tozasertib = compound: CC1=CN=C(N=C1C2=CNC(=C2)C(=O)N[C@H](CO)C3=CC(=CC=C3)Cl)NC4=C(C=C(C=C4)F)Cl [VX-11e] + Cc1cc(Nc2cc(N3CCN(C)CC3)nc(Sc3ccc(NC(=O)C4CC4)cc3)n2)n[nH]1 [Tozasertib] (partner 0.1 µM)
Summary of the method: (§1)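 The day after seeding in 1536-well plates, lung cancer cell lines were treated by pin tool with a single drug, or with a fixed anchor-drug dose together with five library-drug doses (not always all listed) in √10 steps. After 5 days, a combined fix-and-stain solution (final 0.05% Triton X-100, 1% formaldehyde, 1 ug/ml Hoechst) was added. Nuclei counted on 4× images gave relative viability as treated counts over vehicle counts, reported as the median of duplicate plates.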

VX-11e + OSI-027 = compound: CC1=CN=C(N=C1C2=CNC(=C2)C(=O)N[C@H](CO)C3=CC(=CC=C3)Cl)NC4=C(C=C(C=C4)F)Cl [VX-11e] + COc1cccc2cc(-c3nc([C@H]4CC[C@H](C(=O)O)CC4)n4ncnc(N)c34)[nH]c12 [OSI-027] (partner 0.5 µM)
Summary of the method: as §1

VX-11e + Linsitinib = compound: CC1=CN=C(N=C1C2=CNC(=C2)C(=O)N[C@H](CO)C3=CC(=CC=C3)Cl)NC4=C(C=C(C=C4)F)Cl [VX-11e] + C[C@]1(O)C[C@@H](c2nc(-c3ccc4ccc(-c5ccccc5)nc4c3)c3c(N)nccn32)C1 [Linsitinib] (partner 1 µM)
Summary of the method: as §1

VX-11e + Crizotinib = compound: CC1=CN=C(N=C1C2=CNC(=C2)C(=O)N[C@H](CO)C3=CC(=CC=C3)Cl)NC4=C(C=C(C=C4)F)Cl [VX-11e] + C[C@@H](Oc1cc(-c2cnn(C3CCNCC3)c2)cnc1N)c1c(Cl)ccc(F)c1Cl [Crizotinib] (partner 1 µM)
Summary of the method: as §1

| Cell Line | relative viability (VX-11e + Tozasertib; first compound 0.04 µM) | relative viability (VX-11e + Tozasertib; first compound 0.1265 µM) | relative viability (VX-11e + Tozasertib; first compound 0.4 µM) | relative viability (VX-11e + Tozasertib; first compound 1.265 µM) | relative viability (VX-11e + Tozasertib; first compound 4 µM) | relative viability (VX-11e + OSI-027; first compound 0.04 µM) | relative viability (VX-11e + OSI-027; first compound 0.1265 µM) | relative viability (VX-11e + OSI-027; first compound 0.4 µM) | relative viability (VX-11e + OSI-027; first compound 1.265 µM) | relative viability (VX-11e + OSI-027; first compound 4 µM) | relative viability (VX-11e + Linsitinib; first compound 0.04 µM) | relative viability (VX-11e + Linsitinib; first compound 0.1265 µM) | relative viability (VX-11e + Linsitinib; first compound 1.265 µM) | relative viability (VX-11e + Linsitinib; first compound 4 µM) | relative viability (VX-11e + Crizotinib; first compound 0.04 µM) | relative viability (VX-11e + Crizotinib; first compound 0.1265 µM) | relative viability (VX-11e + Crizotinib; first compound 0.4 µM) | relative viability (VX-11e + Crizotinib; first compound 1.265 µM) | relative viability (VX-11e + Crizotinib; first compound 4 µM) | relative viability (VX-11e + Linsitinib; first compound 0.4 µM) |
| --- | --- | --- | --- | --- | --- | --- | --- | --- | --- | --- | --- | --- | --- | --- | --- | --- | --- | --- | --- | --- |
| NCI-H2405 | 0.804 | 0.757 | 0.768 | 0.779 | 0.256 | 0.587 | 0.599 | 0.375 | 0.768 | 0.37 | 0.933 | 0.787 | 0.817 | 0.272 | 0.892 | 0.805 | 0.821 | 0.766 | 0.505 |  |
| NCI-H23 | 0.321 | 0.322 |  | 0.216 | 0.168 | 0.368 | 0.411 |  | 0.271 | 0.173 | 0.48 | 0.52 | 0.378 | 0.271 | 0.422 | 0.504 | 0.416 | 0.347 | 0.32 | 0.37 |
| LXF-289 | 0.223 | 0.177 | 0.222 | 0.189 | 0.141 | 0.686 | 0.58 | 0.174 | 0.517 | 0.358 | 0.995 | 0.88 | 0.801 | 0.686 | 0.902 | 0.788 | 0.87 | 0.706 | 0.543 | 0.958 |
| NCI-H1437 | 0.421 | 0.379 | 0.345 | 0.335 | 0.159 | 0.795 | 0.725 | 0.878 | 0.444 | 0.373 | 1.03 | 1.05 | 0.409 | 0.203 | 1.05 | 0.957 | 0.853 | 0.974 | 0.487 | 0.888 |
| NCI-H661 | 0.323 | 0.354 | 0.349 | 0.382 | 0.379 | 0.727 | 0.632 | 0.751 | 0.625 | 0.396 | 0.598 | 0.617 | 0.501 | 0.394 |  | 0.974 | 1 | 1.16 | 0.934 | 0.568 |
| PC-3 [JPC-3] | 0.892 | 0.863 | 0.829 | 0.926 | 0.729 | 0.705 | 0.714 | 0.685 | 0.866 | 0.544 | 1.08 | 0.959 | 1.09 | 0.822 | 0.993 | 0.963 | 0.93 | 1.07 | 0.845 | 0.99 |
| PC-14 | 0.66 | 0.469 | 0.395 | 0.331 | 0.278 | 0.739 | 0.723 | 0.4 | 0.635 | 0.166 | 1 | 0.866 | 0.961 | 0.665 | 0.993 | 0.916 | 0.861 | 0.878 | 0.506 | 0.953 |
| NCI-H838 | 0.233 | 0.279 | 0.263 | 0.213 | 0.193 | 0.356 | 0.413 | 0.3 | 0.347 | 0.262 | 1.06 | 0.933 | 0.887 | 0.79 | 0.888 | 0.82 | 0.798 | 0.881 | 0.501 | 0.96 |
